{"source": "patent US20110091452A1", "about": "“4,5-Dihydromacbecin Derivatives and Their Use in the Treatment of Cancer or B-Cell Malignancies” (priority 2006, published 2011)", "origin": "cited, not measured here", "key": {"[1]": {"target": "terminal deoxynucleotidyl transferase (Homo sapiens, UniProt P04053)", "sequence (P04053 whole entry, species assumed)": "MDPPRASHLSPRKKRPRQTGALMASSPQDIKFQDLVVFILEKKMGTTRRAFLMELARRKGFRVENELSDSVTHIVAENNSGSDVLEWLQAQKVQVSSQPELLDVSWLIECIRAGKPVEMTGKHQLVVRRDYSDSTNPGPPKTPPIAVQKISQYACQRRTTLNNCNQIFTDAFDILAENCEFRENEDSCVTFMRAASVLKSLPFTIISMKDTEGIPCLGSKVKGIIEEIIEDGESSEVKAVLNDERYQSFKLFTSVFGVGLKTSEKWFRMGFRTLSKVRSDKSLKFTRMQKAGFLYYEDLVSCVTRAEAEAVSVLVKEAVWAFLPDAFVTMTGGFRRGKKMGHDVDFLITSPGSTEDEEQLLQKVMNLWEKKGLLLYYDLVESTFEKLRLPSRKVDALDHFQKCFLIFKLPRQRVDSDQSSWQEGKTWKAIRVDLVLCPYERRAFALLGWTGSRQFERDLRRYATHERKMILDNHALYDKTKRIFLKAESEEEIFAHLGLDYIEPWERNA"}, "[2]": {"tested_on": "Reverse transcriptase"}, "[3]": {"tested_on": "bacteria and fungi", "conditions": "in vitro"}, "[4]": {"tested_on": "protozoa"}, "[5]": {"target": "Hsp90 (Homo sapiens, UniProt P07900)"}}}
{"compound": "CO[C@H]1[C@@H](OC)C[C@H](C)[C@@H](OC)C2=CC(=O)C=C(NC(=O)/C(C)=C/C=C\\[C@H](C)[C@@H](OC(N)=O)/C(C)=C/[C@@H]1C)C2=O", "note": "[macbecin]", "values": [{"measurement": "inhibition of terminal deoxynucleotidyl transferase activity", "setting": "[1]", "value": "not inhibited"}, {"measurement": "inhibition of reverse transcriptase activity", "setting": "[2]", "value": "not inhibited"}]}
{"compound": "COC1=C2C[C@@H](C)C[C@H](OC)[C@H](O)[C@@H](C)/C=C(\\C)[C@H](OC(N)=O)[C@@H](OC)/C=C\\C=C(/C)C(=O)NC(=CC1=O)C2=O", "note": "[geldanamycin]", "values": [{"measurement": "activity against bacteria and fungi", "setting": "[3]", "value": "weak activity"}, {"measurement": "activity in vitro against protozoa", "setting": "[4]", "value": "strong activity"}]}
{"compound": "CO[C@H]1C[C@H](C)Cc2cc(O)cc(c2)NC(=O)/C=C/CC[C@H](OC)[C@@H](OC(N)=O)/C(C)=C/[C@H](C)[C@H]1O", "note": "[KOSN1559]", "values": [{"measurement": "binding affinity to Hsp90, greater than 17-AAG", "setting": "[5]; relative to 17-AAG", "value": 8, "unit": "fold"}, {"measurement": "binding affinity to Hsp90, greater than geldanamycin", "setting": "[5]; relative to geldanamycin", "value": 4, "unit": "fold"}]}
